Each structure is given as a SMILES string.

Assay [1] has as its target kainic acid receptors. The note with it: read-out: IC50, block of kainic acid receptors; cited from earlier work.
The subject of assay [2] is MCAO rats. In words: Rat focal cerebral ischemia-reperfusion model (MCAO), neurological deficit score and cerebral infarction area. In kind it is in vivo. The note with it: Example 6.
Excerpt: The rat focal cerebral ischemia-reperfusion model was established by internal carotid artery suture method. The limbs (hind limbs above the knee joint and forelimbs above the wrist joint) and head of an anesthetized rat were tightened with rubber bands. The animal was fixed on an operating table in supine position, and was shaved with an animal shaver from the head to the chest, and the skin was disinfected with alcohol. The neck of the rat was cut at the midline, and the subcutaneous tissue was bluntly separated. The thin layer of fascia on the surface of the anterior triangle of the neck was separated, the lower side-lower edge of the clavicular hyoid muscle was pulled up, and the longitudinally pulsating artery parallel to this muscle can be seen. The arterial shell was opened, and the bifurcation of the right carotid artery was exposed. The right common carotid artery, external carotid artery and internal carotid artery were separated. The vagus nerve was gently stripped, and the external carotid artery was ligated and cut. The proximal end of the common carotid artery was clamped. An incision was made at the distal end from the ligature of the external carotid artery, and was inserted with a suture line, which was passed through the bifurcation of the common carotid artery into the internal carotid artery, and then was inserted slowly until reaching slight resistance (approximately 20 mm from the bifurcation), so as to block all blood supply to the middle cerebral artery. The suture line was slightly fixed below the incision of the external carotid artery with silk thread. The silk thread clamping the proximal end of the common carotid artery was loosened. A gauze soaked in sterile saline was covered on the wound, and the rat was placed on a heat preservation pad to keep warm. 2.0 h after cerebral ischemia on the right side, the suture line was pulled out gently to restore the blood supply for reperfusion. The external carotid artery was ligated with silk thread fixing the suture line. The skin was stitched, and disinfected. The rats were placed in clean feed, and their general condition and respiration were observed until they woke up from anesthesia. The rats were provided with food and water, and commonly reared.
After the cerebral ischemia model was established, the animals were assigned to each group in a single-blind manner with equal probability. After reperfusion, the animals were immediately administered intravenously with the drugs once. The animals in the model group were administered with an equal volume of normal saline. Neurological deficit symptoms were evaluated 24 hours after cerebral ischemia, the animals were sacrificed, and their brains were taken out, stained, and photographed for determining the area of cerebral infarction.
Neurological deficit symptoms were evaluated using the modified Bederson 5-point scale. The neurological deficit symptoms of rats after cerebral ischemia were evaluated by a single-blind method. […] After scoring, the scoring results of various markers were submitted to the designer, who unblinded and obtained the scoring of each animal in each experimental group.
The degree of cerebral infarction was determined by TTC staining. After the evaluation of the symptoms of neurological deficits was completed, the animals were sacrificed with CO2. The brain was taken out by cutting off head. The olfactory bulb, cerebellum and lower brainstem were removed. The blood on the surface of the brain was washed with normal saline, and the residual water on the surface was removed. The brain was placed at −20° C. for 20 min, then taken out, immediately cut to a coronal section vertically downward at the crossing plane of the line of sight, and sliced backward every 2 mm. The brain slices were incubated in 1% TTC staining solution (at 37° C. for 30 min). The normal brain tissue was stained into dark red, and the ischemic brain tissue was stained into pale white.
Assay [3] deals with N-methyl-D-aspartate (NMDA) receptors. The note with it: read-out: IC50, noncompetitive block of NMDA receptors; cited from earlier work.
The subject of assay [4] is primary cortical neurons. Briefly: NMDA-induced excitatory injury test on primary cortical neurons (Luminescent Cell Viability Assay). Type of assay: cell-based, rat. Here is the method: Pregnant SD rats at 18 days of pregnancy were sacrificed by cervical dislocation. The uterus of rats was dissected and the brain of E18 fetal rats was taken out. The cerebral cortex tissue of the fetal rats was separated into ice-cold DMEM. The meninges and blood vessels on the cortical tissue were removed under a dissecting microscope. The cortical tissue was transferred into ice-cold DMEM, cut into pieces (about 1 mm^3), and digested with trypsin at 37° C. for 10 min. The digestion was stopped with FBS. The obtained cells were blown gently with a Pasteur pipette and passed through a 200-mesh sieve. The filtered cell suspension was transferred to a 15 mL centrifuge tube, and centrifuged at 1000 rpm for 5 min. The supernatant was discarded. Then the cell mass at the bottom of the centrifuge tube was blown gently with 37° C.-prewarmed complete medium (Neurobasal+B27+GlutaMax+1% P/S). The cells were counted using a hemocytometer, diluted to 5×10^5 cells/mL with complete medium, and seeded in a 96-well plate coated with PDL (100 μL/well). Half of the cell culture medium was replaced with complete medium the next day. […] After the inducing buffer was discarded, the cells were washed once with a Locke's buffer containing 1 mM MgCl2, and recovered to be incubated for 4 h by replacing with a complete medium (100 μL/well). The viability of the primary neuron cells was determined by Luminescent Cell Viability Assay kit. According to the instruction, reagents were added at 100 μL/well, and shaking was performed for 10 min. […] Calculation formula: relative neuron activity V (%)=(LUM-LUMbackground)/(LUMnormal control group-LUMbackground group)×100%. LUMbackground was the background reading of the Luminescent Cell Viability Assay reagent added to the cell-free complete medium well. […] Fitting of EC50 of compounds: Log[compound concentration] was used as the abscissa and the relative inhibition rate was used as the ordinate. Log(inhibitor) vs. response-variable slope (four parameters) curve was fitted by Prism8 (GraphPad) to obtain the IC50 of the compounds. […] After the inducing buffer was discarded, the cells were washed once with a Locke's buffer containing 1 mM MgCl2, and recovered to be incubated for 4 h by replacing with a complete medium (100 μL/well). […] After the inducing buffer was discarded, the cells were washed once with a Locke's buffer containing 1 mM MgCl2, and recovered to be incubated for 4 h by replacing with a complete medium (100 μL/well). […] After the inducing buffer was discarded, the cells were washed once with a Locke's buffer containing 1 mM MgCl2, and recovered to be incubated for 4 h by replacing with a complete medium (100 μL/well). […] After the inducing buffer was discarded, the cells were washed once with a Locke's buffer containing 1 mM MgCl2, and recovered to be incubated for 4 h by replacing with a complete medium (100 μL/well).

The target of assay [5] is T1, recombinant human GABAAR (α1β2γ2L) (Homo sapiens, UniProt P14867+P18507+P47870).
T1 construct: host or cells: Xenopus laevis oocytes
To be noted: Xenopus laevis oocytes, cited from earlier work.

T1 sequence (P14867 28-456): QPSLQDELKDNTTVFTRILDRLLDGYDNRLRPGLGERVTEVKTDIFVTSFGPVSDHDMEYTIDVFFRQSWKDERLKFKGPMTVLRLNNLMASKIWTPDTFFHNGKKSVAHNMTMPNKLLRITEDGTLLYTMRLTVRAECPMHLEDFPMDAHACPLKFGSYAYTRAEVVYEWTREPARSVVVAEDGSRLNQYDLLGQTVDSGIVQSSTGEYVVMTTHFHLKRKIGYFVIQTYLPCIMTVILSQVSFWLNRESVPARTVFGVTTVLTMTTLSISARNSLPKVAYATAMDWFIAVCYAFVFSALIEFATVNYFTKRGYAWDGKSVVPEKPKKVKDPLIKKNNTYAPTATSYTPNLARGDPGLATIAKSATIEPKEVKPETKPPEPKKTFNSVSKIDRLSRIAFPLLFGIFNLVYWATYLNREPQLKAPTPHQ
T1 sequence (P47870 25-512 limits assumed): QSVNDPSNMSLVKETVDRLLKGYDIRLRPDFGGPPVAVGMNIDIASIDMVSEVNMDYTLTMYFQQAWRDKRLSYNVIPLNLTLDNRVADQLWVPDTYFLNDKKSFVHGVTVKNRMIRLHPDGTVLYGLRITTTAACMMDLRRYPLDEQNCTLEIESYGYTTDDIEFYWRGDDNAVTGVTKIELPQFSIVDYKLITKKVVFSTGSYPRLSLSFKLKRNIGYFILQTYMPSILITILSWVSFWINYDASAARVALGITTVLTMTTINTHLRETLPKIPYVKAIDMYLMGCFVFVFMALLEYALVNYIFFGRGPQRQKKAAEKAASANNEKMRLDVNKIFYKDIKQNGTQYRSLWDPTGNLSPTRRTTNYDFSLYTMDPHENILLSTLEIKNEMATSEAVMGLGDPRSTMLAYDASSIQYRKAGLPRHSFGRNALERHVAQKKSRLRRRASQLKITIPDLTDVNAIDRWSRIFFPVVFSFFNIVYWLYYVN
T1 sequence (P18507 40-475): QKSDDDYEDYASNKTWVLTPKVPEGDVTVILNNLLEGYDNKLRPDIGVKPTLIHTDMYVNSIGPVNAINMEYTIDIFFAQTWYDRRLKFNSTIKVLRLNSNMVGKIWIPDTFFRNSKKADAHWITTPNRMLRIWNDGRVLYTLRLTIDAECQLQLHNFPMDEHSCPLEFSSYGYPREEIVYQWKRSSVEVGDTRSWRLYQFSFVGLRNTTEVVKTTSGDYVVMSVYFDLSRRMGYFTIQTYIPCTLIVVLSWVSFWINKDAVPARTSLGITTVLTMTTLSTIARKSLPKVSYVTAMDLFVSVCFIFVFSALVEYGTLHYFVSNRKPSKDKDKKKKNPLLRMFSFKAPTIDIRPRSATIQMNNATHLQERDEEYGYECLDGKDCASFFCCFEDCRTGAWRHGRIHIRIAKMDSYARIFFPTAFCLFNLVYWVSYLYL

With `Nc1nc2ccc(OC(F)(F)F)cc2s1` [Riluzole, 2-Amino-6-trifluoromethoxybenzothiazole], the IC50 (in general, the concentration needed to halve the response being measured) in assay [1] is 167 µM; in assay [3], 18 µM. Also, in assay [2] (8 mg/kg i.v. once after reperfusion, 24 hours), the “neurological deficit score vs MCAO model group” value was “significantly reduced”.
Consider `CC1(C)[C@@H]2CC[C@@]1(C)[C@@H](O)C2` [(+)-2-Borneol], for which the “viability of neurons with excitatory injury” value in assay [4] (Example 1, 0.41-3.7 μM) is “concentration-dependently increased”; in assay [4] (Example 1, 10-100 μM), “tended to decrease”. The “viability of neurons with NMDA-induced excitatory injury” value in assay [4] (Example 2, alone at 3.7 μM) is “significantly improve”. The “Fa, protecting neurons from excitatory injury” value (from here on “Fa, protecting neurons”) was 0.014 in assay [4] (Example 3, (+)-2-borneol 0.5 μM); 0.022 in assay [4] (Example 3, (+)-2-borneol 1 μM); 0.152 in assay [4] (Example 3, (+)-2-borneol 2 μM); 0.22 in assay [4] (Example 3, (+)-2-borneol 4 μM); 0.231 in assay [4] (Example 3, (+)-2-borneol 8 μM); 0.042 in assay [4] (Example 4, (+)-2-borneol 0.5 μM). In addition, the “Fa, protecting neurons” value in assay [4] (Example 4, (+)-2-borneol 1 μM) stood at 0.069; in assay [4] (Example 4, (+)-2-borneol 2 μM) it was 0.086; in assay [4] (Example 4, (+)-2-borneol 4 μM), 0.209; in assay [4] (Example 4, (+)-2-borneol 8 μM), 0.205; in assay [4] (Example 5, (+)-2-borneol 0.5 μM), 0.042; in assay [4] (Example 5, (+)-2-borneol 1 μM), 0.077. In addition, the “Fa, protecting neurons” value came out at 0.128 in assay [4] (Example 5, (+)-2-borneol 2 μM); 0.205 in assay [4] (Example 5, (+)-2-borneol 4 μM); 0.202 in assay [4] (Example 5, (+)-2-borneol 8 μM). Also, the “viability of neurons with injury induced by NMDA” value in assay [4] (Example 3, riluzole 10-160 μM, (+)-2-borneol 0.5-8 μM, compositions 20:1) is “concentration-dependently increase”; in assay [4] (Example 4, riluzole 2.5-40 μM, (+)-2-borneol 0.5-8 μM, compositions 5:1), “concentration-dependently increase”. The “viability of neurons with injury induced by NMDA / protective effect” value in assay [4] (Example 5, riluzole 0.5-8 μM, (+)-2-borneol 0.5-8 μM, compositions 1:1) is “concentration-dependently increase”. The Emax in assay [4] (Rattus norvegicus, Primary cortical neuron, Example 1, concentration-inhibition rate curve, read-out: Emax (relative inhibition rate)) worked out at 15%. Moreover, in assay [5] (low concentration of GABA, read-out: EC50, enhancement of GABAAR function), the EC50 (in general, the concentration needed to bring the measured effect to its halfway point) is 248 µM. Moreover, in assay [5], the “enhancement of function of GABAAR induced by low concentration of GABA” value is reported as “more than 10 times”. Moreover, the “neurological deficit score vs MCAO model group” value in assay [2] (1 mg/kg i.v. once after reperfusion, 24 hours) is recorded as “significantly reduced”. Also, the “cerebral infarction area vs MCAO model group” value in assay [2] (0.5 and 1 mg/kg i.v. once after reperfusion, 24 hours) is “dose-dependently, significantly reduced”. Moreover, the “Fa, reducing the area of cerebral infarction in MCAO rats” value is 0.157 in assay [2] ((+)-2-borneol 0.5 mg/kg) and 0.256 in assay [2] ((+)-2-borneol 1 mg/kg). The “neurological deficit score of MCAO rats, dose dependence” value in assay [2] (i.v. once after reperfusion, evaluated 24 hours after cerebral ischemia) is on record as “dose-dependently reduce”.

(Values after US20240165087A1, “APPLICATION OF RILUZOLE- AND BORNEOL-CONTAINING COMPOSITION IN PREPARATION OF MEDICATION FOR TREATING CEREBROVASCULAR DISEASES” (NEURODAWN PHARMACEUTICAL CO., LTD., priority 2021, published 2024).)
